The nature of data set [1]: Survival rate of CTXTAN2 cells. It is filed as cell-based. The settings on record: rat. The text has this: (§1) The above experimental result is much better than a standard of IC50 (50% inhibitory concentration). IC50 represents a concentration of a drug that is required for 50% survival rate of the cells, which means that a certain concentration of a drug is used to detect a cell mortality rate of 50%, and the certain concentration is also referred as 50% inhibitory concentration. Described in different ways, when a ratio of death cells to original cells is 50%, the corresponding concentration is 50% inhibitory concentration. The water-soluble peptide fluorescence material of the present disclosure has low toxicity and excellent compatibility to PC-3 cells, so as to avoid mass mortality of the cells. In addition, HeLa, MCF-7, CTXTAN2, PC12, WSI, 3T3L1 cells are also tested. The water-soluble peptide fluorescence material has excellent compatibility with these cells since the survival rate of these cell are all over 50%.

The nature of data set [2]: Survival rate of PC12 cells. The settings on record: rat. Type of data set: cell-based.
Excerpt: as §1

In data set [3] the test system is acidic cells in living cells. Put plainly: Fluorescence marking of acidic cells in living cells, compared with Lysotracker. It is filed as cell-based. An excerpt: The water-soluble peptide fluorescence material is designed to illuminate in acid, neutral or weak base environment, and following embodiments give an example illuminating in acid environment. FIGS. 1A, 1B and 1C are comparative pictures between a water-soluble peptide fluorescence material of the present disclosure and a traditional fluorescence material at the same concentration. The water-soluble peptide fluorescence material has a structure of following formula including a peptide sequence Phe-Asp-Gly-Glu-Ala (SEQ ID NO: 5):
Continuing in FIG. 1B to compare with FIG. 1A, FIG. 1B uses the water-soluble peptide fluorescence material of the present disclosure, which is also used to mark acidic cells in living cells. […] Accordingly, the water-soluble peptide fluorescence material is suitable for a biological fluorescence probe, so as to detect and mark positions of the acidic cells.
At the same concentration, the water-soluble peptide fluorescence material has the greater fluorescence intensity than that of Lysotracker. On this base, a dose of the water-soluble peptide fluorescence material could be decreased to achieve the same fluorescence intensity with the Lysotracker, so as to decrease medical costs and damage to human bodies.

A short description of data set [4]: Survival rate of WSI cells. The settings on record: human. It is filed as cell-based.
Excerpt: as §1

Data set [5] in a line: Survival rate of MCF-7 cells. Type of data set: cell-based. The settings on record: human.
Excerpt: as §1

The nature of data set [6]: Survival rate of PC-3 cells in the fluorescence material. It is filed as cell-based. The settings on record: human, two days, PC-3 cell.
Excerpt: as §1

A short description of data set [7]: Fluorescence intensity and emission wavelength at different pH values. It is filed as physicochemical. An excerpt:
In Experimental Examples 210, 220, 230, 240, 250, 260, 270 and 280, the above water-soluble peptide fluorescence material is respectively placed in environments having a pH value of 10, 9, 8, 7, 6, 5, 4 and 3 for testing. In Experimental Examples 210 to 230, the water-soluble peptide fluorescence material is respectively placed in environments having the pH value of 10, 9 and 8.
Continuing in FIG. 5, which illustrates a fluorescence intensity and an emission wavelength of the water-soluble peptide fluorescence material of formula (III-10) at different pH values. In Experimental Examples 510, 520, 530, 540, 550, 560, 570 and 580, the water-soluble peptide fluorescence material of formula (III-10) is respectively placed in environments having a pH value of 10, 9, 8, 7, 6, 5, 4 and 3 for testing. In Experimental Examples 510 to 560, the water-soluble peptide fluorescence material is placed in environments having the pH value of 10 to 5, and two emission peaks are shown in FIG. 5. […] Then, the pH value is further decrease to 4 (Experimental Example 570) and 3 (Experimental Example 580), and only the emission peak at about 400 nm is remained, so the observed fluorescence has a color of purple in Experimental Examples 570 and 580. Therefore, the water-soluble peptide fluorescence material of formula (III-10) is able to detect and mark locations of acidic cells by change of the color.
Continuing in FIG. 7, which illustrates a fluorescence intensity and an emission wavelength of the water-soluble peptide fluorescence material of formula (III-21) at different pH values. In Experimental Examples 710, 720, 730, 740, 750, 760, 770 and 780, the water-soluble peptide fluorescence material of formula (III-21) is respectively placed in environments having a pH value of 10, 9, 8, 7, 6, 5, 4 and 3 for testing. In Experimental Examples 710 to 750, the water-soluble peptide fluorescence material is placed in environments having the pH value of 10 to 6. […] However, the fluorescence intensity of Experimental Examples 780 is decreased when the pH value is decreased from 4 to 3.
Continuing in FIG. 8, which illustrates a fluorescence intensity and an emission wavelength of the water-soluble peptide fluorescence material of formula (III-22) at different pH values. In Experimental Examples 810, 820, 830, 840, 850, 860, 870 and 880, the water-soluble peptide fluorescence material of formula (III-22) is respectively placed in environments having a pH value of 10, 9, 8, 7, 6, 5, 4 and 3 for testing. In Experimental Examples 810 to 850, the water-soluble peptide fluorescence material is respectively placed in environments having the pH value of 10 to 6. […] In addition, the fluorescence intensity of Experimental Example 860 (pH=5) is 90 times of the fluorescence intensity of Experimental Example 810 […], which represents that the water-soluble peptide fluorescence material has obvious light-emitting interval and easily to identify and detect positions of the acidic cells.
FIG. 10 illustrates a fluorescence intensity and an emission wavelength of the water-soluble peptide fluorescence material of formula (III-23) at different pH values. In Experimental Examples 1010, 1020, 1030, 1040, 1050, 1060, 1070 and 1080, the water-soluble peptide fluorescence material of formula (III-23) is respectively placed in environments having a pH value of 10, 9, 8, 7, 6, 5, 4 and 3 for testing. In Experimental Examples 1010 to 1050, the water-soluble peptide fluorescence material is respectively placed in environments having the pH value of 10 to 6. […] The water-soluble peptide fluorescence material not only provides obvious marker, but also achieves the same effect of the fluorescence at a low concentration, and thereby reduces the costs.
FIG. 11 illustrates a fluorescence intensity and an emission wavelength of the water-soluble peptide fluorescence material of formula (III-27) at different pH values. […]

Data set [8] is described as follows: Survival rate of 3T3L1 cells. Type of data set: cell-based. The settings on record: mouse.
Excerpt: as §1

Data set [9] is described as follows: Survival rate of HeLa cells. The settings on record: human. It is filed as cell-based.
Excerpt: as §1

Residues, ends and D or L forms follow the SMILES beside them. *: point of attachment. X1 = O=C1c2cccc3c(N4CCCCC4)ccc(c23)C(=O)C1CC(=O)*

As to `C[C@H](NC(=O)[C@H](CCC(=O)O)NC(=O)CNC(=O)[C@H](CC(=O)O)NC(=O)[C@H](Cc1ccccc1)NC(=O)CC1C(=O)c2cccc3c(N4CCCCC4)ccc(c23)C1=O)C(=O)O` (stereo partly shown) (X1-FDGEA-OH), the viability in data set [1], in [2], in data set [4], in data set [5], in data set [8] and in data set [9] was > 50% each time. Further, the “fluorescence appearing at the acidic cells” value in [3] (living cells, FIGS. 1A/1B) is “green fluorescence”. In addition, in data set [3] (overlapped picture FIG. 1C), the “cellular position of fluorescence compared with Lysotracker” value is “substantially the same as Lysotracker”. Moreover, the “fluorescence intensity compared with Lysotracker” value in [3] (same concentration, acidic cells in living cells) is on record as “greater than that of the red fluorescence of Lysotracker”. In data set [6], this compound returned a viability at 48 h, 500 µM of 80%. Besides, the “ratio of fluorescence intensity pH 3 to pH 7” value in [7] (Experimental Examples 240 and 280) was 25.5 times. For the same compound, the fluorescence intensity entry in data set [7] (pH 3) is given as “about 900 fluorescent units”; in data set [7] (pH 4), “about 500 fluorescent units”; in [7] (pH 5), “about 350 fluorescent units”; in data set [7] (pH 6, compared to pH 10 to 7), “no significant change”; in data set [7] (pH 7, neutral environment), “slightly increased”; in [7] (pH 10, 9 and 8), “low fluorescence intensities”. The color of fluorescence entry in data set [7] (pH 5) was “green”. Besides, the emission peak result in [7] (pH 5) is “about 550 nm”.

One may read the viability as a read-out of living cells in per cent, often relative to untreated cells.

These data come from patent US10222381B2, “Water-soluble peptide fluorescence material” (NATIONAL CHIAO TUNG UNIVERSITY, priority 2015, dated 2019).
